Measurements as given in patent US6060516A, “N^1 -propargylhydrazines, N^2 -propargylhydrazines and their analogs for the treatment of depression, anxiety and neurodegeneration” (CV Technologies, Inc., priority 1998, dated 2000).

Experiments:
[1] = biological target: T1, rat brain monoamine oxidase-A (Rattus norvegicus, UniProt P21396); assay: Monoamine oxidase-A inhibiting activity in vitro (radiochemical, 5-hydroxytryptamine substrate, rat brain homogenate); type: biochemical; conditions: for inhibition at 100 µM: 1 × 10^-4 M; for inhibition at 10 µM: 1 × 10^-5 M; for inhibition at 1 µM: 1 × 10^-6 M; for inhibition at 0.1 µM: 1 × 10^-7 M; for inhibition at 0.01 µM: 1 × 10^-8 M
T1 construct: appropriately diluted homogenates of rat brain or liver; from tissue; host or cells: rat brain or liver homogenate
T1 sequence (P21396 1-526): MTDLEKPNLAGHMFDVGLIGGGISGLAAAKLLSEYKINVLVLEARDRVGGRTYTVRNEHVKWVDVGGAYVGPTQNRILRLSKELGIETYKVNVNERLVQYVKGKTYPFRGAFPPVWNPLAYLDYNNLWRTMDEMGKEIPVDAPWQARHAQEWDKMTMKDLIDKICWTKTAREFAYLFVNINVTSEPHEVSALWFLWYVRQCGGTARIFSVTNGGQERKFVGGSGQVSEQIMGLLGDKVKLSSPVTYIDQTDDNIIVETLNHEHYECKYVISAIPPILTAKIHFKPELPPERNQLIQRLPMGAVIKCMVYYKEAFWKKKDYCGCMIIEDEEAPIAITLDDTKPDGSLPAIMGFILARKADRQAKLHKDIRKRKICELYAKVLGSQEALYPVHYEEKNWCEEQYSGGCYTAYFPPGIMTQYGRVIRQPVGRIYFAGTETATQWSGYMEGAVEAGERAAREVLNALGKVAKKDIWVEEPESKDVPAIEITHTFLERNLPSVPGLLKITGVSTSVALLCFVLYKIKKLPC
Protocol: Radiolabelled 5-hydroxytryptamine was used as the substrate for monoamine oxidase-A. Various concentrations of the compounds were incubated in appropriately diluted homogenates of rat brain or liver in a 0.2 M potassium phosphate buffer. Incubations proceeded at 37° C. for 10 minutes. Incubation was terminated by the addition of acid and the radiolabelled product (5-hydroxyindoleacetic acid) was extracted and quantified by liquid scintillation counting procedures. Incubations were done in triplicate and incubations containing phenelzine were included for comparison. The percent inhibition of monoamine oxidase-A activity compared to controls without the compounds of the present invention was calculated.

[2] = tested on: rat brain and liver monoamine oxidase-A; assay: Monoamine oxidase-A inhibiting activity ex vivo; type: in vivo
Protocol: (§1) Radiolabelled 5-hydroxytryptamine was used as a substrate for monoamine oxidase-A. The compounds of interest were either injected intraperitonealy in DMSO or administered by gavage in water for various periods. The animals were killed by decapitation and the brains and livers immediately removed and frozen until assayed for monoamine oxidase-A activity. Tissues were homogenized and appropriately diluted in buffer prior to incubation. Incubations proceeded at 37° C. for 10 minutes. Incubation was terminated by the addition of acid and the radiolabelled product (5-hydroxyindoleacetaldehyde and 5-hydroxyindoleacetic acid) was extracted and quantified by liquid scintillation counting procedures. Incubations were done in triplicate and incubations containing phenelzine were included for comparison. The percent inhibition of monoamine oxidase-A activity compared to controls containing no drug was calculated.
(§2) Values are the mean ± the standard error based on (n) determinations.
(§3) Oral doses were administered as 75 μmol/kg on day 1, 75 μmol/kg on
(§4) day 2 and the animals were killed 5 hours later.

[3] = tested on: rat brain and liver monoamine oxidase-B; assay: Monoamine oxidase-B inhibiting activity ex vivo; type: in vivo
Protocol: as §1, with “β-phenylethylamine” for “5-hydroxytryptamine”, “employed” for “used”, “oxidase-B.” for “oxidase-A.”, “intraperitoneally” for “intraperitonealy”, “oxidase-B” for “oxidase-A”, “(phenylacetic” for “(5-hydroxyindoleacetaldehyde and 5-hydroxyindoleacetic”
as §2, §3, §4

[4] = tested on: valine, alanine and gamma-aminobutyric acid (GABA) concentrations in rat brain; assay: Brain valine, alanine and gamma-aminobutyric acid (GABA) concentrations; type: in vivo; conditions: for GABA / Valine: 150 μmol/kg, 5 hr, ip; for GABA concentrations: doses as high as 150 μmol/kg; for GABA concentrations / elevation of alanine: in words
Protocol: Effects of various doses of CVT-P040, CVT-P041 and phenelzine on the concentrations of some brain amino acids were evaluated by examining concentrations of gamma-aminobutyric acid (GABA) 5 hours after the injection of the drug. Briefly, rats were injected with CVT-P040 ([…]), vehicle, or phenelzine (150 μmol/kg) and killed 3 or 5 hours later. The brains were removed and divided in half. One half of the brain was frozen in isopentane on dry ice and retained for estimates of GABA concentrations. GABA and other amino acid concentrations were estimated using the method of Wong, J. T. F., Baker, G. B. and Coutts, R. T. (1990), A rapid, sensitive assay for γ-aminobutyric acid in brain using electron-capture gas chromatography, Res. Comm. Chem. Path. Pharmacol. 70: 115-122.

[5] = brain, 5.75 μmol/kg, 5 hr, i.p. in 10% DMSO
[6] = brain, 150 μmol/kg, 5 hr, i.p. in 10% DMSO
[7] = brain, 2 × 75 μmol/kg per os (day 1 and day 2, killed 5 hours later)
[8] = liver, 5.75 μmol/kg, 5 hr, i.p. in 10% DMSO
[9] = liver, 2 × 75 μmol/kg per os (day 1 and day 2, killed 5 hours later)
[10] = brain, 5.75 μmol/kg, 5 hr, i.p. in 10% DMSO (Table 4, MAO-B by title)
[11] = brain, 150 μmol/kg, 5 hr, i.p. in 10% DMSO (Table 4, MAO-B by title)
[12] = brain, 2 × 75 μmol/kg per os (Table 4, MAO-B by title)
[13] = liver, 5.75 μmol/kg, 5 hr, i.p. in 10% DMSO (Table 4, MAO-B by title)
[14] = liver, 2 × 75 μmol/kg per os (Table 4, MAO-B by title)

## C#CCN(N)CCc1ccccc1 [CVT-P040, N^1 -propargylphenelzine]
[1]
  inhibition at 100 µM: 99.5%
  inhibition at 10 µM: 99.1%
  inhibition at 1 µM: 71.1%
  inhibition at 0.1 µM: 20.6%
  inhibition at 0.01 µM: 0.7%
[2]; brain, 0.58 μmol/kg, 5 hr, i.p. in 10% DMSO
  % Inhibition Monoamine Oxidase-A: 7.2 ± 5.1%
[2]; [5]
  % Inhibition Monoamine Oxidase-A: 9.1 ± 4.9%
[2]; brain, 57.5 μmol/kg, 5 hr, i.p. in 10% DMSO
  % Inhibition Monoamine Oxidase-A: 86.6 ± 6.7%
[2]; [6]
  % Inhibition Monoamine Oxidase-A: 96.7 ± 0.6%
[2]; brain, 173 μmol/kg, 5 hr, i.p. in 10% DMSO
  % Inhibition Monoamine Oxidase-A: 98.4 ± 0.1%
[2]; [7]
  % Inhibition Monoamine Oxidase-A: 96.9 ± 0.8%
[2]; liver, 0.58 μmol/kg, 5 hr, i.p. in 10% DMSO
  % Inhibition Monoamine Oxidase-A: -6.1 ± 4.4%
[2]; [8]
  % Inhibition Monoamine Oxidase-A: 43.7 ± 5.4%
[2]; liver, 57.5 μmol/kg, 5 hr, i.p. in 10% DMSO
  % Inhibition Monoamine Oxidase-A: 91.7 ± 2.3%
[2]; liver, 173 μmol/kg, 5 hr, i.p. in 10% DMSO
  % Inhibition Monoamine Oxidase-A: 97.7 ± 0.3%
[2]; [9]
  % Inhibition Monoamine Oxidase-A: 95.4 ± 0.7%
[3]; brain, 0.58 μmol/kg, 5 hr, i.p. in 10% DMSO (Table 4, MAO-B by title)
  % Inhibition of Monoamine Oxidase-B: -4.7 ± 2.0%
[3]; [10]
  % Inhibition of Monoamine Oxidase-B: 11.8 ± 5.1%
[3]; brain, 57.5 μmol/kg, 5 hr, i.p. in 10% DMSO (Table 4, MAO-B by title)
  % Inhibition of Monoamine Oxidase-B: 66.1 ± 6.9%
[3]; [11]
  % Inhibition of Monoamine Oxidase-B: 85.5 ± 1.7%
[3]; brain, 173 μmol/kg, 5 hr, i.p. in 10% DMSO (Table 4, MAO-B by title)
  % Inhibition of Monoamine Oxidase-B: 93.2 ± 0.8%
[3]; [12]
  % Inhibition of Monoamine Oxidase-B: 85.4 ± 2.1%
[3]; liver, 0.58 μmol/kg, 5 hr, i.p. in 10% DMSO (Table 4, MAO-B by title)
  % Inhibition of Monoamine Oxidase-B: 1.1 ± 5.4%
[3]; [13]
  % Inhibition of Monoamine Oxidase-B: 29.3 ± 2.8%
[3]; liver, 57.5 μmol/kg, 5 hr, i.p. in 10% DMSO (Table 4, MAO-B by title)
  % Inhibition of Monoamine Oxidase-B: 64.0 ± 5.5%
[3]; liver, 173 μmol/kg, 5 hr, i.p. in 10% DMSO (Table 4, MAO-B by title)
  % Inhibition of Monoamine Oxidase-B: 87.9 ± 1.0%
[3]; [14]
  % Inhibition of Monoamine Oxidase-B: 82.3 ± 2.3%
[4]
  GABA: 270 ± 23 µg/g
  Valine: 22.9 ± 1.4 µg/g
  GABA concentrations: did not elevate GABA concentrations
  elevation of alanine: elevation of alanine was not seen

## C#CCN(CCc1ccccc1)NC(C)=O [CVT-P041, N^1 -propargyl-N^2 -acetylphenelzine]
[1]
  inhibition at 100 µM: 79.5%
  inhibition at 10 µM: 27.7%
  inhibition at 1 µM: 4.2%
  inhibition at 0.1 µM: 1.8%
  inhibition at 0.01 µM: 0.3%
[2]; [6]
  % Inhibition Monoamine Oxidase-A: 98.4 ± 0.0%
[2]; [7]
  % Inhibition Monoamine Oxidase-A: 92.9 ± 1.7%
[2]; [9]
  % Inhibition Monoamine Oxidase-A: 98.3 ± 0.2%
[3]; [11]
  % Inhibition of Monoamine Oxidase-B: 77.6 ± 0.4%
[3]; [12]
  % Inhibition of Monoamine Oxidase-B: 73.6 ± 2.2%
[3]; [14]
  % Inhibition of Monoamine Oxidase-B: 97.4 ± 0.2%
[4]
  GABA: 253 ± 0 µg/g
  Valine: 20.6 ± 0.5 µg/g
  GABA concentrations: did not elevate GABA concentrations
  elevation of alanine: elevation of alanine was not seen

## NNCCc1ccccc1 [phenelzine, 1-(2-phenyl) ethylhydrazine, reference compound]
[1]
  inhibition at 100 µM: 100%
  inhibition at 10 µM: 100%
  inhibition at 1 µM: 98.9%
  inhibition at 0.1 µM: 62.9%
  inhibition at 0.01 µM: 6.9%
[2]; [5]
  % Inhibition Monoamine Oxidase-A: 9.1 ± 5.3%
[2]; [6]
  % Inhibition Monoamine Oxidase-A: 97.2%
[2]; [7]
  % Inhibition Monoamine Oxidase-A: 96.5 ± 1.2%
[2]; [8]
  % Inhibition Monoamine Oxidase-A: 36.4 ± 5.3%
[2]; [9]
  % Inhibition Monoamine Oxidase-A: 97.7 ± 0.3%
[3]; [10]
  % Inhibition of Monoamine Oxidase-B: -2.7 ± 5.6%
[3]; [11]
  % Inhibition of Monoamine Oxidase-B: 83.3 ± 2.3%
[3]; [12]
  % Inhibition of Monoamine Oxidase-B: 76.4 ± 3.4%
[3]; [13]
  % Inhibition of Monoamine Oxidase-B: 18.1 ± 5.8%
[3]; [14]
  % Inhibition of Monoamine Oxidase-B: 95.6 ± 1.0%
[4]
  GABA: 773 ± 37 µg/g
  Valine: 22.9 ± 0.4 µg/g
